Like-named read-outs stand apart in the source and are kept apart here.
System: capacitative calcium entry (CCE) in IP3 receptor-deficient strain of cell line DT40
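Also: intracellular Ca2+ read as 340/380 nm excitation ratio at 510 nm emission, stores emptied by thapsigargin without external Ca2+, then 2 mM CaCl2 added, inhibition of the ensuing Ca2+ rise.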

Procedure: (Assay of Capacitative Calcium Entry Inhibition)
Its 510 nm fluorescence obtained at 340 nm and 380 nm is measured and the fluorescence ratio F340/380 is measured to determine the intracellular calcium ion concentration. Next, thapsigargin (an endoplasmic reticulum calcium ion pump inhibitor) is allowed to act without calcium ion in an extracellular fluid to deplete an intracellular calcium store. Calcium chloride at a final concentration of 2 mM is added to the extracellular fluid. The IC50 value is calculated by estimating the effect of each compound on the degree of increase in the intracellular calcium concentration at the time of the addition.

| SMILES | inhibition (3 µM) [%] | inhibition (1 µM) [%] | further results |
| --- | --- | --- | --- |
| NCCOB(c1ccccc1)c1ccccc1 [(2-aminoethoxy)diphenylborane, reference compound] |  |  | IC50: 5 µM |
| OB(c1ccccc1)c1ccc(Oc2ccc(B(O)c3ccccc3)cc2)cc1 [Example 1, Bis(4,4′-(phenylhydroxyboryl)phenyl) ether] | 50 |  |  |
| OB(c1ccccc1)c1cccc(COCc2cccc(B(O)c3ccccc3)c2)c1 [Example 4] |  | 100 | inhibition (0.1 µM): 70%; inhibition (0.3 µM): 95% |
| NCCOB(c1ccccc1)c1cccc(COCc2cccc(B(OCCN)c3ccccc3)c2)c1 [Example 5, Bis(3,3′-(phenylaminoethoxyboryl)benzyl) ether] |  |  | inhibition (0.03 µM): 30%; inhibition (0.1 µM): 95%; inhibition (0.3 µM): 100% |
| OB(c1ccccc1)c1ccc(COCc2ccccc2B(O)c2ccccc2)cc1 [Example 12, (2-(Phenylhydroxyboryl)benzyl) (4-(phenylhydroxyboryl)benzyl) ether] | 100 | 80 | inhibition (0.3 µM): 10% |
| NCCOB(c1ccccc1)c1ccc(COCc2cccc(B(OCCN)c3ccccc3)c2)cc1 [Example 13, (3-(Phenylaminoethoxyboryl)benzyl) (4-(phenylaminoethoxyboryl)benzyl) ether] |  |  | inhibition (0.1 µM): 10%; inhibition (0.2 µM): 80%; inhibition (0.3 µM): 100% |
| NCCOB(c1ccccc1)c1cccc(COCc2ccccc2B(OCCN)c2ccccc2)c1 [Example 15, (2-(Phenylaminoethoxyboryl)benzyl) (3-(phenylaminoethoxyboryl)benzyl) ether] | 100 | 100 | inhibition (0.3 µM): 100% |
| Cc1ccc(B(OCCN)c2ccc(-c3ccc(B(OCCN)c4ccc(C)cc4)cc3)cc2)cc1 [Example 45, 4,4′-(4-Methylphenylaminoethoxyboryl)diphenyl] | 100 | 20 |  |
| OB(c1ccccc1)c1ccc(COc2ccc(B(O)c3ccccc3)cc2)cc1 [Example 51, (4-Phenylhydroxyborylphenyl) (4′-phenylhydroxyborylbenzyl) ether] | 100 | 20 |  |
| NCCOB(c1ccccc1)c1ccc(COc2ccc(B(OCCN)c3ccccc3)cc2)cc1 [Example 52, (4-Phenylaminoethoxyborylphenyl) (4′-phenylaminoethoxyborylbenzyl) ether] | 100 |  |  |
| NCCOB(c1ccc(COCCOc2ccc(B(OCCN)c3cccs3)cc2)cc1)c1cccs1 [Example 53, (4-(2-Thiopheneaminoethoxyboryl)phenoxyethyl) (4′-(2-thiopheneaminoethoxyboryl)benzyl) ether] |  | 10 |  |
| OB(c1ccc(COc2ccc(B(O)c3ccc(C(F)(F)F)cc3)cc2)cc1)c1ccc(C(F)(F)F)cc1 [Example 54, (4-Trifluoromethylphenylhydroxyborylphenyl) (4′-trifluoromethylphenylhydroxyborylbenzyl) ether] | 100 | 60 |  |
| NCCOB(c1ccc(COc2ccc(B(OCCN)c3ccc(C(F)(F)F)cc3)cc2)cc1)c1ccc(C(F)(F)F)cc1 [Example 55] | 100 | 20 | inhibition (0.3 µM): 0% |
| CC(C)(C)c1cc(B(OCCN)c2ccccc2)c2c(c1)C(C)(C)c1cc(C(C)(C)C)cc(B(OCCN)c3ccccc3)c1O2 [Example 60, 4,5-Di(phenylaminoethoxyboryl)-2,7-di-t-butyl-9,9-dimethylxanthrene] | 100 | 20 |  |
| CNCCOB(c1ccccc1)c1ccc(Oc2ccc(B(OCCNC)c3ccccc3)cc2)cc1 [Example 68, Bis(4,4′-(phenyl-N-methylaminoethoxyboryl)phenyl) ether] |  | 80 | inhibition (0.3 µM): 20% |
| CNCCOB(c1ccc(COc2ccc(B(OCCNC)c3ccc(C(F)(F)F)cc3)cc2)cc1)c1ccc(C(F)(F)F)cc1 [Example 84, (4′-Trifluoromethylphenyl-N-methylaminoethoxyboryl)-4-phenyl (4′-trifluoromethylphenyl-N-methylaminoethoxyboryl)-4-benzyl ether] | 100 | 50 |  |
| CN(C)CCOB(c1ccccc1)c1cccc(COCc2cccc(B(OCCN(C)C)c3ccccc3)c2)c1 [Example 85, Bis(3,3′-(phenyl-N,N-dimethylaminoethoxyboryl)benzyl) ether] | 90 | 10 |  |
| c1ccc(B(OCc2ccccn2)c2ccc(COCc3ccc(B(OCc4ccccn4)c4ccccc4)cc3)cc2)cc1 [Example 88, Bis(4,4′-(phenyl-2-pyridylmethoxyboryl)benzyl) ether] | 100 | 95 |  |
| Cc1ccc(B(O)c2ccc(COCc3ccc(B(O)c4ccc(C)c(Cl)c4)cc3)cc2)cc1Cl [Example 90, Bis(4,4′-(3-chloro-4-methylphenyl-hydroxyboryl)benzyl) ether] | 100 | 20 |  |
| COc1ccc(B(OCCN)c2ccc(COCc3ccc(B(OCCN)c4ccc(OC)cc4)cc3)cc2)cc1 [Example 94, Bis(4,4′-(p-methoxyphenyl-aminoethoxyboryl)benzyl) ether] | 100 | 0 |  |
| CNCCOB(c1ccc(COCc2ccc(B(OCCNC)c3ccc(OC)cc3)cc2)cc1)c1ccc(OC)cc1 [Example 95, Bis(4,4′-(p-methoxyphenyl-N-methylaminoethoxyboryl)benzyl) ether] | 80 | 80 |  |
| Cc1ccc(B(OCCN)c2ccc(COCc3ccc(B(OCCN)c4ccc(C)c(Cl)c4)cc3)cc2)cc1Cl [Example 102, Bis(4,4′-(3-chloro-4-methylphenyl-aminoethoxyboryl)benzyl) ether] | 100 | 30 |  |
| CNCCOB(c1ccc(COCc2ccc(B(OCCNC)c3ccc(C)c(Cl)c3)cc2)cc1)c1ccc(C)c(Cl)c1 [Example 103, Bis(4,4′-(3-chloro-4-methylphenyl-N-methylaminoethoxyboryl)benzyl) ether] | 80 | 30 |  |
| Cc1ccc(B(OCCN(C)C)c2ccc(COCc3ccc(B(OCCN(C)C)c4ccc(C)c(Cl)c4)cc3)cc2)cc1Cl [Example 104, Bis(4,4′-(3-chloro-4-methylphenyl-N,N-dimethylaminoethoxyboryl)benzyl) ether] | 100 | 20 |  |
| Cc1ccc(B(OCC2CCCCN2)c2ccc(COCc3ccc(B(OCC4CCCCN4)c4ccc(C)c(Cl)c4)cc3)cc2)cc1Cl (stereo not shown) [Example 105, Bis(4,4′-(3-chloro-4-methylphenyl-2-piperidylmethyloxyboryl)benzyl) ether] | 100 | 30 |  |
| CN(C)CCOB(c1ccc(COCc2ccc(B(OCCN(C)C)c3ccc(C(F)(F)F)cc3)cc2)cc1)c1ccc(C(F)(F)F)cc1 [Example 106, Bis(4,4′-(p-trifluoromethylphenyl-N,N-dimethylaminoethoxyboryl)benzyl) ether] | 100 | 30 |  |
| NCCOB(c1ccc(COCc2ccc(B(OCCN)c3ccc(C(F)(F)F)cc3)cc2)cc1)c1ccc(C(F)(F)F)cc1 [Example 108, Bis(4,4′-(p-trifluoromethylphenyl-aminoethoxyboryl)benzyl) ether] | 100 | 20 |  |
| CNCCOB(c1ccccc1)c1ccc(COc2ccc(B(OCCNC)c3ccccc3)cc2)cc1 [Example 109, (4-Phenyl-N-methylaminoethoxyborylphenyl) 4′-(N-methylaminoethoxyborylbenzyl) ether] | 100 | 80 |  |

— patent publication US8017809B2, “Bisboron compound” (Japan Science and Technology Agency, priority 2005, dated 2011)
